1 compound from ChEMBL document CHEMBL1133905, “Novel lipase-catalysed enantioselective deacetylation of (+/-)-5-acetoxy-3-(4-fluorophenyl)-2-phenylisoxazolidine” (2001) can be followed below.

Test [1] has as its system Mycobacterium tuberculosis. Description: Inhibition against Mycobacterium tuberculosis at 6.25 ug/mL. The class given is functional.
Test [2] concerns Mycobacterium tuberculosis. Description: Inhibition against Mycobacterium tuberculosis. Format: functional.

Molecules are shown by their SMILES. ≈ marks a conversion by molar mass, not a printed value.

For orientation: inhibition means the percentage by which the read-out fell short of the control. Low readings indicate a response near the control, high ones a response far below the control. As usually defined, the MIC is the lowest concentration that inhibits growth of the organism. In test [1], `CC(=O)OC1CC(c2ccc(F)cc2)N(c2ccccc2)O1` (racemic) displayed an inhibition at 6.25 µg/mL of 78%. Besides, the MIC in test [2] stood at 6.25 µg/mL (≈ 20.7 µM).
